Our source for the melting point values is patent US7358249B2, “Heterocyclic compounds having inhibitory activity against HIV integrase” (Shionogi & Co., Ltd., priority 2002, dated 2008).

Where a name gives a salt, the structure may show the parent alone.

For orientation: melting point means the temperature, or range, at which the solid turns liquid.

In turn, `COC(=O)c1cc(C(=O)N2CCC(O)CC2)c2cc(Cc3ccc(F)cc3)cnc2c1O` displayed a melting point of 196 to 197 °C.
The value for `COC(=O)c1cc(C(=O)NN2CCCCC2)c2cc(Cc3ccc(F)cc3)cnc2c1O` was 233 to 234 °C.
As for `COC(=O)c1cc(N2CCCCC2)c2cc(Cc3ccc(F)cc3)cnc2c1O`, the figure is 133 to 134 °C; as for `COC(=O)c1cc(C(=O)OCc2ccccc2)c2cc(Cc3ccc(F)cc3)cnc2c1O`, 131 to 133 °C.
`COC(=O)c1cc(NC(=O)c2ccnc(C)c2)c2cc(Cc3ccc(F)cc3)cnc2c1O` (as salt: salt) showed a melting point of 229 to 230 °C.
The value for `COC(=O)c1cc(C(=O)NNC(=O)c2ccccc2)c2cc(Cc3ccc(F)cc3)cnc2c1O` was 227 to 229 °C; that for `COC(=O)c1cc(N2CCOCC2)c2cc(Cc3ccc(F)cc3)cnc2c1O` was 119 to 120 °C; that for `CONC(=O)c1cc(C(=O)OC)c(O)c2ncc(Cc3ccc(F)cc3)cc12` was 200 to 201 °C.
As for `COC(=O)c1cc(C(=O)NCCNC(C)=O)c2cc(Cc3ccc(F)cc3)cnc2c1O`, the melting point is 251 to 253 °C.
The value for `COCCOC(=O)c1cc(C(=O)O)c2cc(Cc3ccc(F)cc3)cnc2c1O` was 234 to 235 °C (dec.); that for `COC(=O)c1nc(N2C(=O)COCC2=O)c2cc(Cc3ccc(F)cc3)cnc2c1O` was 182 to 184 °C.
`CCOC(=O)c1cc(C(=O)O)c2cc(Cc3ccc(F)cc3)cnc2c1O` came in with a melting point of 238 to 239 °C.
As for `COC(=O)c1cc(C(=O)NNC(C)=O)c2cc(Cc3ccc(F)cc3)cnc2c1O`, the figure is 208 to 209 °C.
For the compound `COCC(=O)Nc1cc(C(=O)OC)c(O)c2ncc(Cc3ccc(F)cc3)cc12`, the melting point lay in the range of 154 to 155 °C.
As for `COC(=O)c1cc(C(=O)O)c2cc(Cc3ccc(F)cc3)cnc2c1O.NCCN`, the figure is 164 °C; as for `CCCCC(=O)c1cc(C(=O)O)c2cc(Cc3ccc(F)cc3)cnc2c1O`, 227 to 229 °C; as for `CNC(=O)c1cc(C(=O)O)c2cc(Cc3ccc(F)cc3)cnc2c1O`, 203 to 205 °C.
The compound `COC(=O)c1cc(NC(=O)c2cc(C)on2)c2cc(Cc3ccc(F)cc3)cnc2c1O` displayed a melting point of 182 to 183 °C.
Compound `CC(C)NC(=O)c1nc(NS(C)(=O)=O)c2cc(Cc3ccc(F)cc3)cnc2c1O` had a melting point of 167 to 168 °C.
As for `CC(=O)NNC(=O)c1cc(C(=O)OC2CCN(C(C)=O)CC2)c(O)c2ncc(Cc3ccc(F)cc3)cc12`, the figure is 129 to 131 °C; as for `COC(=O)c1cc(C(=O)NNCC(=O)N(C)C)c2cc(Cc3ccc(F)cc3)cnc2c1O`, 170 to 172 °C; as for `COC(=O)c1cc(CCC(=O)O)c2cc(Cc3ccc(F)cc3)cnc2c1O`, 254 to 256 °C.
As for `COC(=O)c1cc(NC(=O)c2ccc(Cl)cc2)c2cc(Cc3ccc(F)cc3)cnc2c1O`, the figure is 253 to 254 °C; as for `COC(=O)c1cc(C#N)c2cc(Cc3ccc(F)cc3)cnc2c1O`, 178 to 179 °C.
Consider `COC(=O)c1cc(CC#N)c2cc(Cc3ccc(F)cc3)cnc2c1O`, for which the melting point was 173 to 175 °C.
The value for `CN(C)NC(=O)c1nc(C#CC2=CCCC2)c2cc(Cc3ccc(F)cc3)cnc2c1O` was 206 to 207 °C; that for `CC(=O)c1cc(C(=O)O)c2cc(Cc3ccc(F)cc3)cnc2c1O` was 239 to 242 °C; that for `C#CCNC(=O)c1cc(C(=O)OC)c(O)c2ncc(Cc3ccc(F)cc3)cc12` was 192 to 193 °C.
Consider `COC(=O)c1cc(C(=O)NCCF)c2cc(Cc3ccc(F)cc3)cnc2c1O`, for which the melting point is 216 to 217 °C.
As for `NC(=O)c1cc(C(=O)O)c2cc(Cc3ccc(F)cc3)cnc2c1O`, the figure is 212 to 213 °C; as for `CN(C)C(=O)c1cc(C(=O)O)c2cc(Cc3ccc(F)cc3)cnc2c1O`, 214.5 to 215.5 °C; as for `COCCCC(=O)c1ncc2cc(Cc3ccc(F)cc3)cnc2c1O`, 117 to 118 °C.
`COC(=O)c1cc(-c2ccccc2C=O)c2cc(Cc3ccc(F)cc3)cnc2c1O` showed a melting point of 73 to 75 °C.
As for `CCC(=O)c1cc(C(=O)O)c2cc(Cc3ccc(F)cc3)cnc2c1O`, the figure is 235 to 237 °C.
The value for `COC(=O)c1cc(C(=O)N2CCC(C(N)=O)CC2)c2cc(Cc3ccc(F)cc3)cnc2c1O` was 235 to 238 °C; that for `CC(=O)N1CCC(OC(=O)c2cc(C(=O)NCCCO)c3cc(Cc4ccc(F)cc4)cnc3c2O)CC1` was 97 to 99 °C; that for `CCOCCNC(=O)c1cc(C(=O)OC)c(O)c2ncc(Cc3ccc(F)cc3)cc12` was 174 to 175 °C.
As for `COC(=O)c1cc(C(=O)NC2CCN(C(C)=O)CC2)c2cc(Cc3ccc(F)cc3)cnc2c1O`, the figure is 214 to 215 °C; as for `COC(=O)c1cc(N(C=O)C=O)c2cc(Cc3ccc(F)cc3)cnc2c1O`, 243 to 245 °C.
Turning to `COC(=O)c1nc(C(=O)NS(=O)(=O)c2ccccc2)c2cc(Cc3ccc(F)cc3)cnc2c1O`, the melting point fell in the range of 228 to 229 °C.
As for `CCCC(=O)c1cc(C(=O)O)c2cc(Cc3ccc(F)cc3)cnc2c1O`, the figure is 232 to 234 °C; as for `COC(=O)c1cc(C(=O)NN(C)C)c2cc(Cc3ccc(F)cc3)cnc2c1O`, 198 to 199 °C.
The value for `COC(=O)c1cc(C(=O)N2CCSCC2)c2cc(Cc3ccc(F)cc3)cnc2c1O` was 184 to 185 °C; that for `COC(=O)c1cc(NCC(C)C)c2cc(Cc3ccc(F)cc3)cnc2c1O` was 249 to 251 °C.
As for `COCCNC(=O)c1nc(NS(C)(=O)=O)c2cc(Cc3ccc(F)cc3)cnc2c1O`, the figure is 241 to 242 °C.
Turning to `COC(=O)c1cc(C(=O)NCC(=O)O)c2cc(Cc3ccc(F)cc3)cnc2c1O`, the melting point fell in the range of 246 to 247 °C.
The value for `COC(=O)c1cc(C(=O)NNC(=O)c2cccnc2)c2cc(Cc3ccc(F)cc3)cnc2c1O` was 184 to 185 °C; that for `COC(=O)c1nc(N2CCOC2=O)c2cc(Cc3ccc(F)cc3)cnc2c1O` was 256 °C (dec.); that for `COC(=O)c1cc(C(=O)N(C)CC(=O)N(C)C)c2cc(Cc3ccc(F)cc3)cnc2c1O` was 99 to 100 °C.
The value for `COC(=O)c1cc(C(=O)NC2CCCCC2)c2cc(Cc3ccc(F)cc3)cnc2c1O` was 212 to 213 °C.
The value for `CONC(=O)c1cc(C(=O)OC)c2cc(Cc3ccc(F)cc3)cnc2c1O` was 186 to 188 °C.
The compound `COC(=O)c1cc(Br)c2cc(Cc3ccc(F)cc3)cnc2c1O` yielded a melting point of 152 °C.
Compound `CCNC(=O)Nc1cc(C(=O)OC)c(O)c2ncc(Cc3ccc(F)cc3)cc12` returned a melting point of 280 to 282 °C.
As for `COC(=O)c1cc(NC(=O)c2ccccc2Cl)c2cc(Cc3ccc(F)cc3)cnc2c1O`, the figure is 230 to 232 °C; as for `COC(=O)c1cc(C(=O)NCCN2CCOCC2)c2cc(Cc3ccc(F)cc3)cnc2c1O`, 198 to 199 °C.
Take `COC(=O)c1cc(C(=O)N2COCC2(C)C)c2cc(Cc3ccc(F)cc3)cnc2c1O`: the melting point lay within 149 to 150 °C.
The value for `CCC(=O)c1cc(N2CCCC2=O)c2cc(Cc3ccc(F)cc3)cnc2c1O` was 202 to 203 °C; that for `COCCNC(=O)c1cc(C(=O)OC)c2cc(Cc3ccc(F)cc3)cnc2c1O` was 165 to 167 °C; that for `CC(C)OC(=O)c1cc(C(=O)O)c2cc(Cc3ccc(F)cc3)cnc2c1O` was 249 to 251 °C (dec.).
Take `COC(=O)c1cc(NC(=O)COc2ccccc2)c2cc(Cc3ccc(F)cc3)cnc2c1O`: the melting point lay in the range of 172 to 173 °C.
Take `COCCCCC(=O)c1cc(C(=O)O)c2cc(Cc3ccc(F)cc3)cnc2c1O`: the melting point was 216 to 218 °C.
As to `COC(=O)c1cc(CN2C(=O)CCCC2=O)c2cc(Cc3ccc(F)cc3)cnc2c1O`, the melting point lay within 154 to 156 °C.
The value for `COC(=O)Cc1cc(C(=O)OC)c(O)c2ncc(Cc3ccc(F)cc3)cc12` was 168 to 169 °C; that for `COC(=O)CNC(=O)c1cc(C(=O)OC)c(O)c2ncc(Cc3ccc(F)cc3)cc12` was 209 to 210 °C.
In turn, `COC(=O)c1cc(C(=O)[O-])c2cc(Cc3ccc(F)cc3)cnc2c1O.[Na+]` showed a melting point of over 208 °C.
The value for `CCOC(=O)CNNC(=O)c1cc(C(=O)OC)c(O)c2ncc(Cc3ccc(F)cc3)cc12` was 184 to 185 °C; that for `COC(=O)c1cc(C(=O)NC(C)(C)CO)c2cc(Cc3ccc(F)cc3)cnc2c1O` was 204 to 205 °C; that for `COCCOC(=O)c1cc(C(=O)NOC)c(O)c2ncc(Cc3ccc(F)cc3)cc12` was 166 to 168 °C.
Consider `COC(=O)c1cc(C(=O)NN2CCOCC2)c2cc(Cc3ccc(F)cc3)cnc2c1O`, for which the melting point was over 250 °C.
The value for `CCCOC(=O)c1cc(C(=O)O)c2cc(Cc3ccc(F)cc3)cnc2c1O` was 249 to 251 °C (dec.); that for `COC(=O)CCc1cc(C(=O)OC)c(O)c2c1CC(Cc1ccc(F)cc1)CN2` (centres unmarked) was 140 to 141 °C; that for `COC(=O)c1cc(C(=O)NCCOC(C)C)c2cc(Cc3ccc(F)cc3)cnc2c1O` was 175 to 176 °C.
As for `COC(=O)c1cc(C(=O)NC2CCOCC2)c2cc(Cc3ccc(F)cc3)cnc2c1O`, the figure is 246 to 247 °C.
In turn, `COC(=O)C(=O)Nc1cc(C(=O)OC)c(O)c2ncc(Cc3ccc(F)cc3)cc12` yielded a melting point of 168 to 170 °C.
As for `COC(=O)c1cc(C(=O)Nc2ccncn2)c2cc(Cc3ccc(F)cc3)cnc2c1O`, the figure is 241 to 242 °C; as for `CC(=O)N1CCC(OC(=O)c2cc(C(=O)O)c3cc(Cc4ccc(F)cc4)cnc3c2O)CC1`, 230 to 232 °C; as for `O=C1CCc2cc3cc(Cc4ccc(F)cc4)cnc3c(O)c21`, 195 to 197 °C.
Consider `COC(=O)c1cc(C(=O)N2CCCOCC2)c2cc(Cc3ccc(F)cc3)cnc2c1O`, for which the melting point is 136 to 137 °C.
The value for `COCC(=O)NNC(=O)c1cc(C(=O)OC)c(O)c2ncc(Cc3ccc(F)cc3)cc12` was 181 to 182 °C.
As to `COC(=O)c1cc(C(=O)Nc2nccs2)c2cc(Cc3ccc(F)cc3)cnc2c1O`, the melting point was in the range of 258 to 259 °C.
